Test results published in patent US10722527B2, “Abiraterone acetate lipid formulations” (Capsugel Belgium NV, priority 2015, dated 2020).
Like-named read-outs stand apart in the source and are kept apart here.

Experiment: Equilibrium solubility of crystalline active in digestion medium / digested placebo LMP formulation
Assay type: physicochemical
Settings: 37 °C, thermodynamic from solid
Protocol: In both cases, the majority of the active was solubilized in a lipid phase that phase-separated on centrifugation of the samples and most likely consisting of larger lipophilic colloids including multi-lamellar vesicles. Active drug in the aqueous phase (consisting of BS/PL mixed-micelles, lipid-enriched BS/PL mixed micelles and small vesicles) is considered the most readily available form for absorption.
In vitro digestion tests were performed as follows: 1 g of the active-containing formulation was dispersed in 40 mL fasted intestinal medium (2 mM Tris-maleate, 1.4 mM CaCl2.2H2O, and 150 mM NaCl, 3 mM sodium taurodeoxycholate and 0.75 mM phosphatidylcholine, 37° C.) using a pH-stat titrator as described by the LFCS Consortium (Williams, H D. et al., J. Pharm. Sci. 101 (2012), p. 3360-3380). […] Active concentration in the aqueous phase was measured by HPLC. […] Also thermodynamic solubility of the active was evaluated in digested placebo formulations for determining solubility in digested lipidic colloidal phases.

- solubility thermodynamic (pH 6.5, aqueous with cosolvent or surfactant or cyclodextrin, digested placebo LMP formulation, read-out: Equilibrium solubility of crystalline active in digested LMP formulations): 121 µg/mL
- solubility thermodynamic (pH 6.5, fassif, same fasted intestinal medium, without digested lipid formulation, read-out: Equilibrium solubility of the crystalline active in digestion medium): 27 µg/mL
Compound: CC(=O)O[C@H]1CC[C@@]2(C)C(=CC[C@@H]3[C@@H]2CC[C@]2(C)C(c4cccnc4)=CC[C@@H]32)C1 [Abiraterone acetate]
